Results published in patent US20240082416A1, “AMATOXIN ANALOGS AND USES THEREOF” (THE UNIVERSITY OF BRITISH COLUMBIA, priority 2020, published 2024).
“And” between values parts separate entries of the source, which are not always exact repeats. Equal values may be shown once. Starred links: 1 amine or outer side, 2 acyl side, 3 side chain; linkers in the order of their positions; H or OH if unused. Positions of bridges follow the written chain, without caps; N, C: chain ends. Non-standard residues stand in square brackets, D forms with d. Residues, ends and D or L forms follow the SMILES beside them. Trp(2-yl) = O=C([C@H](Cc1c([*:3])[nH]c2ccccc12)N[*:1])[*:2]; X2 = [N-]=[N+]=N[C@@H]1C[C@@H](C(=O)[*:2])N([*:1])C1; Ile(4R-OH,5-OH) = C[C@H]([C@H](N)C(=O)O)[C@@H](O)CO

Columns and labels:
[1] = Cell viability assay (BrdU incorporation) on HEK293-OATP1B3 cells; type: cell-based, human; details: human, HEK293-OATP1B3 cells; for viability at 96 h, 1 µM: highest used concentration of 1 μM
Experimental: (§1) . HEK293 and HEK-OATP1B3 cells were plated at 2.5×10^3 cells/well in a 1:1 mixture of Ham's F12 with DMEM containing 10% charcoal-stripped fetal calf serum (FCS) onto poly-D-lysine-coated 96-well plates and grown for 24 hours. Subsequently, cells were incubated with amanitin analogs at 8 different concentrations (1×10^−6 M to 1.28×10^−11 M, serial 1:5 dilutions). Following 96 h of drug exposure, cell viability was determined by a BrdU incorporation assay (Cell Proliferation ELISA, BrdU, Roche) and chemiluminescence was measured using a FLUOstar Optima plate reader (BMG LABtech). Data analysis was performed with GraphPad Prism 8 (GraphPad Software, Inc., La Jolla, CA) software to plot curve fits.

HEK293-OATP1B3 cells = test: as above; type: cell-based, human; details: HEK293-OATP1B3 vs HEK293
Experimental: as §1

[2] = target: eukaryotic RNA polymerase II (Pol II) (Homo sapiens, UniProt P24928); details: literature; cited from earlier work
CHO cells [3] = test: Viability assay against CHO cells (MTT colorimetric assay); type: cell-based, Chinese hamster; details: for % viable cells: 72 h, replicates n = 1, 2, 3, listed as N3-Pro-amanitin (3)
Experimental: (§2) (f) Cell culture: Cells were cultured in Minimum Essential Medium Eagle—Alpha Modification (α-MEM) or […] Dulbecco's Modified Eagle Medium (DMEM), purchased from Gibco. […] All cell culture plastic ware was obtained from Coming or Falcon. Cells were cultured at 37° C. in a humidified chamber with 5% CO2. When used in cell culture, DMSO was purified by filtration through a […] filter. All experiments were carried out in a laminar flow culture cabinet, unless otherwise noted.
(§3) Immortalized CHO cells had been stored in liquid nitrogen. To revive cells, a 1-mL tube of the frozen cells in medium containing 10% DMSO was warmed in a 30° C. water bath and diluted with 9 mL of fresh media. Media contained 10% FBS and 100 U/mL penicillin and […] streptomycin, unless otherwise indicated. The cells were incubated in a T-25 flask at 37° C. at 5% CO2. After 24 hours, the medium was aspirated and replaced with fresh medium. When cells reached a level of 90-100% confluence, they were sub-cultured. […] Once the cells were detached from the tissue culture flask, 3-5 mL media was added to quench the trypsin and the mixture was transferred to a 10 mL centrifuge tube. The mixture was centrifuged for 5 min at […], and the supernatant was discarded. The cells were suspended in fresh medium, diluted as required, and transferred to a new culture flask.
(§4) To assay cell viability, a nearly confluent tissue culture flask was trypsinized, and the cells were counted following treatment with Trypan blue, using a hemocytometer. The cells were then diluted to the appropriate stock concentrations in fresh medium and transferred in 100 μL to a 96-well plate using a multi-channel pipette. The number of cells plated varied from experiment to experiment. These were incubated at 37° C. and 5% CO2 for a 24-hour period to allow for adherence. The medium was aspirated, and fresh medium was added, which contained the desired additives in DMSO. The cells were then re-incubated for 72 h. At the completion of the experiment, a 100 μL aliquot of 25 mg/mL MTT in phosphate-buffered saline (PBS) was added to each well. The plate was incubated three hours further to allow for the formation of the formazan product in viable cells. The media was carefully aspirated, and the purple product was solubilized in DMSO. […] Data was processed in Microsoft Excel and GraphPad Prism. Experiments were performed in triplicates unless otherwise noted, and the error bars were calculated as the standard error of the mean.
(§5) Each cell line was plated in a 96-well plate, with 100 μL of the stock solution per well (5000 cells per well) and incubated for 24 hours. […] The cells were incubated for 72 hours, at which point viability was assessed as described.

HEK293 cells = type: cell-based, human; details: wt-HEK293 cells lacking OATP1B3; 96 h
Experimental: as §1

Pol II = target: T1, Pol II (Homo sapiens, UniProt P24928); test: In vitro transcription runoff assay using HeLaScribe nuclear extract; type: biochemical; details: for Transcription activity E (%): mean ± standard deviation
T1 construct: HeLaScribe® nuclear extract containing Pol II and all other transcription factors; purchased Promega; host or cells: HeLa nuclear extract (endogenous protein)
Source text: (h) In vitro transcription assay of synthetic amanitins containing analogs of Hyp: Primers were purchased from IDT via standard phosphoramidite chemistry. dNTP and rNTP were purchased from Thermofisher. GoTaq polymerase and HeLaScribe*Nuclear Extract in vitro Transcription System was purchased from Promega. Taq polymerase was purchased from NEB. [^32P] α-dGTP (3000 Ci/mmol 10 mCi/ml EasyTide) and [^32P] α-GTP (3000 Ci/mmol 10 mCi/ml EasyTide) were purchased from Perkin Elmer. QIAquick PCR purifcation kit was purchased from Qiagen. AcGFP1-N1 was a gift (Addgene plasmid #54705; http://n2t.net/addgene:54705; RRID:Addgene_54705). DNA Primer sequences were:
The DNA template for transcription runoff was synthesized by PCR with template pAcGFP-N1, and primers P1 and P2. To a final volume of 20 μL, 1 x GoTaq Buffer, 250 μM of each dNTP, 500 nM of each primers P1 and P2, […] pAcGFP-N1 and 0.05 U/μL GoTaq were employed to thermocycle for 30 cycles (30 s at 95° C., 30 s at 50° C. and 60 s at 72° C., Bio-Rad). A 1 μL aliquot of the amplified solution was resolved with 6×DNA loading dye in a 1% agarose gel containing […] and then visualized using GelDoc XR imager (Bio-Rad). Purification was completed via QIAquick PCR purification kit (Qiagen). The radioactive chromatographic standard was synthesized by PCR with template pAcGFP-N1, and primers P3 and P4. To a final volume of 50 μL, 1 x Thermopol Buffer, 200 μM of each dNTP, 500 nM of each primers P3 and P4, 10 pg/μL pAcGFP-N1 and 0.02 U/μL Vent polymerase, 1 μL [^32P] α-dGTP were employed to thermocycle for 30 cycles (30 s at 95° C., 30 s at 62° C. and 30 s at 72° C., Bio-Rad). A 1 μL aliquot of the amplified solution was resolved with 6×DNA loading dye in 8% denaturing PAGE and then visualized by autoradiography via the Typhoon 9200 imager (Molecular namics-Amersham-GE). Purification was completed via QIAquick PCR purification kit (Qiagen). The transcription runoff assay was modified from HeLaScribe® Nuclear Extract in vitro Transcription System (Promega). […]. The pellet was resolved by 8% denaturing PAGE and then visualized by autoradiography via the Typhoon 9200 imager (Molecular dynamics-Amersham-GE). Dosimetry was calculated by ImageJ, and the 3 parameter logistic fit was completed by Origin 2019 (OriginLab). […]
All data were presented in mean±standard deviation (n=3).

CHO cells [4] = details: background statement, read-out: Ki (CHO cells readily killed); cited from earlier work
RNA-polymerase II = RNA-polymerase II (Homo sapiens, UniProt P24928); details: cited from earlier work
[5] = Viability assay against CHO cells (MTT colorimetric assay); type: cell-based, Chinese hamster; details: Chinese hamster, CHO cells, 72 h, replicates n = 1, 2, 3, read-out: % viable cells
Experimental: as §2, §3, §4, §5

In the case of `CC[C@H](C)[C@@H]1NC(=O)CNC(=O)[C@@H]2Cc3c([nH]c4cc(O)ccc34)[S@+]([O-])C[C@H](NC(=O)CNC1=O)C(=O)N[C@@H](CC(=O)O)C(=O)N1C[C@H](O)C[C@H]1C(=O)N[C@@H]([C@@H](C)[C@@H](O)CO)C(=O)N2` [β-amanitin, reference compound], the IC50 at 96 h ([1]; HEK293-OATP1B3 cells (OATP1B3 overexpressing HEK293), 96 h) is reported as 8.5 ± 1.1 nM, the viability at 96 h, 1 µM ([1]; HEK293-OATP1B3 cells (OATP1B3 overexpressing HEK293)) is reported as 0% and the “fold increase in toxicity / reduction of the IC50 value on HEK293-OATP1B3 relative to HEK293 cells” value (HEK293-OATP1B3 cells) is reported as 15 fold.

For amanullin, the Ki [2] is listed as 10 to 40 nM.

For proamanullin, the Ki [2] is listed as 5000 to 20000 nM.

For “α-amanitin [Compound 1, reference compound]”, the IC50 (CHO cells [3]; CHO cells, MTT assay, control) was 350 to 1100 nM, the IC50 (HEK293 cells) was 130 ± 80 nM and the “Transcription activity E (%)” value (Pol II; 1 nM) was 85.0 ± 2.4%. For the same compound, the “Transcription activity E (%)” value (Pol II; 3 nM) was 69.5 ± 9.4%, the “Transcription activity E (%)” value (Pol II; 10 nM) was 48.1 ± 9.8% and the “Transcription activity E (%)” value (Pol II; 30 nM) was 22.9 ± 2.6%. The “Transcription activity E (%)” value (Pol II; 100 nM) was 9.5 ± 4.1% and the Ki (CHO cells [4]) was roughly 500 nM.

For amanitin, the Kd (RNA-polymerase II) is listed as 3 nM.

With `CC[C@H](C)[C@@H]1NC(=O)CNC(=O)[C@@H]2Cc3c([nH]c4ccccc34)SC[C@H](NC(=O)CNC1=O)C(=O)N[C@@H](CC(N)=O)C(=O)N1C[C@H](N=[N+]=[N-])C[C@H]1C(=O)N[C@@H]([C@@H](C)[C@@H](O)CO)C(=O)N2` [Compound 3, N3-Pro-amanitin] (cyclo(CN[X2][Ile(4R-OH,5-OH)][Trp(2-yl)]GIG); thioether 1-5) the viability at 72 h, 1e-05 M ([5]; 1e-005 M) was 107%, the viability at 72 h, 1.25e-06 M ([5]; 1.25e-006 M) was 105% and the viability at 72 h, 1.56e-07 M ([5]; 1.56e-007 M) was 101%. For the same compound, the viability at 72 h, 2e-05 M ([5]; 2e-005 M) was 112%, the viability at 72 h, 2.5e-06 M ([5]; 2.5e-006 M) was 104% and the viability at 72 h, 3.125e-07 M ([5]; 3.125e-007 M) was 99%. For the same compound, the viability at 72 h, 5e-06 M ([5]; 5e-006 M) was 104%, the viability at 72 h, 6.25e-07 M ([5]; 6.25e-007 M) was 101% and the “% viable cells” value (CHO cells [3]; 1e-005 M) was 100% and 94%. For the same compound, the “% viable cells” value (CHO cells [3]; 1.25e-006 M) was 88% and 89%, the “% viable cells” value (CHO cells [3]; 1.56e-007 M) was 89% and 88% and the “% viable cells” value (CHO cells [3]; 2.5e-006 M) was 95% and 88%. The “% viable cells” value (CHO cells [3]; 3.125e-007 M) was 89% and 91%, the “% viable cells” value (CHO cells [3]; 5e-006 M) was 88% and 89% and the “% viable cells” value (CHO cells [3]; 6.25e-007 M) was 93% and 87%. For the same compound, the viability at 96 h, 1 µM ([1]; HEK293 cells overexpressing OATP1B3 (HEK293-OATP1B3)) was 68%, the IC50 (Pol II; IC50 (nM), Table 12, n = 3, high values estimated from activity at [I]=1.0 μM) was greater than 1000 nM and the “inhibitory effects” value (Pol II; up to 1 μM concentrations) was “did not exhibit any noticeable inhibitory effects”.
